Measured values from US20240252454A1, “COMPOSITION COMPRISING AN INHIBITOR OF MITOCHONDRIAL TRANSCRIPTION” (LEAD DISCOVERY CENTER GMBH, priority 2021, published 2024).

Legend:
Test in all cases: SRB assay, IMT combined with inhibitor
Format in all cases: cell-based
A549 = A549 (lung); concentration series of the labelled inhibitor + fixed concentration of IMT (3S)-1-[(2R)-2-[4-(2-chloro-4-fluoro-phenyl)-2-oxo-chromen-7-yl]oxypropanoyl]piperidine-3-carboxylic acid (Table 3: 40 nM, 120 h); negative=synergistic, positive=antagonistic
Experimental: (§1) Solforhodamine B assay is carried out as described in Voigt W. (2005) Sulforhodamine B Assay and Chemosensitivity. (Methods in Molecular Medicine™, vol 110. Humana Press. https://doi.org/10.1385/1-59259-869-2:039).
(§2) The determination of changes in cellular biomass was based on the Solforhodamine B assay format, carried out as described in Voigt W. (2005) Sulforhodamine B Assay and Chemosensitivity. (Methods in Molecular Medicine™, vol 110. Humana Press. https://doi.org/10.1385/1-59259-869-2:039).
(§3) All in vitro cell culture experiments were carried out under near physiological glucose concentrations (5 mM) in at least two independent replicates.
(§4) First, 30 different cell lines from 14 different tissue types were tested in the SRB assay format. The cells were examined individually for changes in growth over a period of 120 hours with dilution series of both inhibitors. Untreated cells were used as a negative control group. Subsequently, a dilution series of the respective MAPK signalling pathway SOCs was treated in combination with a fixed concentration of 40 nM (3S)-1-[(2R)-2-[4-(2-chloro-4-fluoro-phenyl)-2-oxo-chromen-7-yl]oxypropanoyl]piperidine-3-carboxylic acid.

A673 = A673 (muscle); concentration series of the labelled inhibitor + fixed concentration of IMT (3S)-1-[(2R)-2-[4-(2-chloro-4-fluoro-phenyl)-2-oxo-chromen-7-yl]oxypropanoyl]piperidine-3-carboxylic acid (Table 3: 40 nM, 120 h); negative=synergistic, positive=antagonistic
Experimental: as §1, §2, §3, §4

CALU6 = CALU6 (lung); concentration series of the labelled inhibitor + fixed concentration of IMT (3S)-1-[(2R)-2-[4-(2-chloro-4-fluoro-phenyl)-2-oxo-chromen-7-yl]oxypropanoyl]piperidine-3-carboxylic acid (Table 3: 40 nM, 120 h); negative=synergistic, positive=antagonistic
Experimental: as §1, §2, §3, §4

DU145 = DU145 (prostate); concentration series of the labelled inhibitor + fixed concentration of IMT (3S)-1-[(2R)-2-[4-(2-chloro-4-fluoro-phenyl)-2-oxo-chromen-7-yl]oxypropanoyl]piperidine-3-carboxylic acid (Table 3: 40 nM, 120 h); negative=synergistic, positive=antagonistic
Experimental: as §1, §2, §3, §4

HCT15 = HCT15 (colon); concentration series of the labelled inhibitor + fixed concentration of IMT (3S)-1-[(2R)-2-[4-(2-chloro-4-fluoro-phenyl)-2-oxo-chromen-7-yl]oxypropanoyl]piperidine-3-carboxylic acid (Table 3: 40 nM, 120 h); negative=synergistic, positive=antagonistic
Experimental: as §1, §2, §3, §4

HELA = HELA (cervix); concentration series of the labelled inhibitor + fixed concentration of IMT (3S)-1-[(2R)-2-[4-(2-chloro-4-fluoro-phenyl)-2-oxo-chromen-7-yl]oxypropanoyl]piperidine-3-carboxylic acid (Table 3: 40 nM, 120 h); negative=synergistic, positive=antagonistic
Experimental: as §1, §2, §3, §4

JAR = JAR (placenta); concentration series of the labelled inhibitor + fixed concentration of IMT (3S)-1-[(2R)-2-[4-(2-chloro-4-fluoro-phenyl)-2-oxo-chromen-7-yl]oxypropanoyl]piperidine-3-carboxylic acid (Table 3: 40 nM, 120 h); negative=synergistic, positive=antagonistic
Experimental: as §1, §2, §3, §4

KASUMI-1 = KASUMI-1 (hematological); concentration series of the labelled inhibitor + fixed concentration of IMT (3S)-1-[(2R)-2-[4-(2-chloro-4-fluoro-phenyl)-2-oxo-chromen-7-yl]oxypropanoyl]piperidine-3-carboxylic acid (Table 3: 40 nM, 120 h); negative=synergistic, positive=antagonistic
Experimental: as §1, §2, §3, §4

MIAPACA2 = MIAPACA2 (pancreas); concentration series of the labelled inhibitor + fixed concentration of IMT (3S)-1-[(2R)-2-[4-(2-chloro-4-fluoro-phenyl)-2-oxo-chromen-7-yl]oxypropanoyl]piperidine-3-carboxylic acid (Table 3: 40 nM, 120 h); negative=synergistic, positive=antagonistic
Experimental: as §1, §2, §3, §4

MV4-11 = MV4-11 (hematological); concentration series of the labelled inhibitor + fixed concentration of IMT (3S)-1-[(2R)-2-[4-(2-chloro-4-fluoro-phenyl)-2-oxo-chromen-7-yl]oxypropanoyl]piperidine-3-carboxylic acid (Table 3: 40 nM, 120 h); negative=synergistic, positive=antagonistic
Experimental: as §1, §2, §3, §4

SKMEL5 = SKMEL5 (skin); concentration series of the labelled inhibitor + fixed concentration of IMT (3S)-1-[(2R)-2-[4-(2-chloro-4-fluoro-phenyl)-2-oxo-chromen-7-yl]oxypropanoyl]piperidine-3-carboxylic acid (Table 3: 40 nM, 120 h); negative=synergistic, positive=antagonistic
Experimental: as §1, §2, §3, §4

SKOV3 = SKOV3 (ovary); concentration series of the labelled inhibitor + fixed concentration of IMT (3S)-1-[(2R)-2-[4-(2-chloro-4-fluoro-phenyl)-2-oxo-chromen-7-yl]oxypropanoyl]piperidine-3-carboxylic acid (Table 3: 40 nM, 120 h); negative=synergistic, positive=antagonistic
Experimental: as §1, §2, §3, §4

SW620 = SW620 (colon); concentration series of the labelled inhibitor + fixed concentration of IMT (3S)-1-[(2R)-2-[4-(2-chloro-4-fluoro-phenyl)-2-oxo-chromen-7-yl]oxypropanoyl]piperidine-3-carboxylic acid (Table 3: 40 nM, 120 h); negative=synergistic, positive=antagonistic
Experimental: as §1, §2, §3, §4

U2OS = U2OS (bone); concentration series of the labelled inhibitor + fixed concentration of IMT (3S)-1-[(2R)-2-[4-(2-chloro-4-fluoro-phenyl)-2-oxo-chromen-7-yl]oxypropanoyl]piperidine-3-carboxylic acid (Table 3: 40 nM, 120 h); negative=synergistic, positive=antagonistic
Experimental: as §1, §2, §3, §4

U87MG = U87MG (brain); concentration series of the labelled inhibitor + fixed concentration of IMT (3S)-1-[(2R)-2-[4-(2-chloro-4-fluoro-phenyl)-2-oxo-chromen-7-yl]oxypropanoyl]piperidine-3-carboxylic acid (Table 3: 40 nM, 120 h); negative=synergistic, positive=antagonistic
Experimental: as §1, §2, §3, §4

Compound	difference between the calculated combinatorial index (BLISS) and the observed combinatorial effect (A549)	difference between the calculated combinatorial index (BLISS) and the observed combinatorial effect (A673)	difference between the calculated combinatorial index (BLISS) and the observed combinatorial effect (CALU6)	difference between the calculated combinatorial index (BLISS) and the observed combinatorial effect (DU145)	difference between the calculated combinatorial index (BLISS) and the observed combinatorial effect (HCT15)	difference between the calculated combinatorial index (BLISS) and the observed combinatorial effect (HELA)	difference between the calculated combinatorial index (BLISS) and the observed combinatorial effect (JAR)	difference between the calculated combinatorial index (BLISS) and the observed combinatorial effect (KASUMI-1)	difference between the calculated combinatorial index (BLISS) and the observed combinatorial effect (MIAPACA2)	difference between the calculated combinatorial index (BLISS) and the observed combinatorial effect (MV4-11)	difference between the calculated combinatorial index (BLISS) and the observed combinatorial effect (SKMEL5)	difference between the calculated combinatorial index (BLISS) and the observed combinatorial effect (SKOV3)	difference between the calculated combinatorial index (BLISS) and the observed combinatorial effect (SW620)	difference between the calculated combinatorial index (BLISS) and the observed combinatorial effect (U2OS)	difference between the calculated combinatorial index (BLISS) and the observed combinatorial effect (U87MG)
Cn1cnc2c(F)c(Nc3ccc(Br)cc3Cl)c(C(=O)NOCCO)cc21 [Selumetinib]	−0.0519	0.0313	0.0376	0.0383	0.0320	0.0054	0.0045	−0.0114	−0.0734	0.0150	−0.0968	0.0622	−0.0547	−0.1010	0.0486
CC(C)(C)c1nc(-c2cccc(NS(=O)(=O)c3c(F)cccc3F)c2F)c(-c2ccnc(N)n2)s1 [Dabrafenib]	−0.0892	−0.0146	−0.0342	−0.0114	0.0551	−0.0022	0.0431	−0.0274	0.0508	0.0205	−0.0987	0.0282	−0.0699	−0.0418	0.0044
Cc1cc(C(=O)NOCCO)c(Nc2ccc(I)cc2F)n(C)c1=O [AZD8330, 2-((2-Fluoro-4-iodophenyl)amino)-N-(2-hydroxyethoxy)-1,5-dimethyl-6-oxo-1,6-dihydropyridine-3-carboxamide]	−0.0341	−0.0047	−0.0116	0.0201	0.1028	0.0000	0.0124	−0.0326	0.1347	0.0680	0.0135	−0.0609	−0.0037	−0.0171	0.0579
CS(=O)(=O)N1CCN(Cc2cc3nc(-c4cccc5[nH]ncc45)nc(N4CCOCC4)c3s2)CC1 [GDC-0941, 2-(1H-Indazol-4-yl)-6-[[4-(methylsulfonyl)-1-piperazinyl]methyl]-4-(4-morpholinyl)thieno[3,2-d]pyrimidine]	0.0023	0.0099	−0.0406	0.0436	0.0270	−0.0531	0.0136	0.0051	0.0516	0.0272	−0.0915	0.0556	0.0303	0.0451	0.1078
